# Results: patent publication US20180155737A1, “METHOD FOR MODULATING PLANT ROOT ARCHITECTURE” (priority 2012, published 2018)
# Entries after “also recorded” stand apart in the source; their conditions may differ. Square brackets hold non-standard residues; d marks the D form. Ends that are not written are not given here. Hyp = O=C(O)[C@@H]1C[C@@H](O)CN1
# Experiments:
# [1] = tested on: M. truncatula roots; experiment: Exogenous application of synthetic RAR peptides to M. truncatula roots (lateral roots, CCP sites/bumps, root growth); assay type: in vivo, Medicago truncatula; conditions: for Periodic bump (CCP site) formation: synthetic peptide applied to roots
# Experimental: Seeds of M. truncatula cv Jemalong genotype A17 wild-type and M. truncatula 2HA line carrying either GH3 promoter-GUS reporter fusion gene (GH3:GUS) were grown under standard conditions (Holmes P, Goffard N, Weiller G F, Rolfe B G, & Imin N (2008), “Transcriptional profiling of Medicago truncatula meristematic root cells”, BMC Plant Biol 8:21).
# The RAR peptides were synthesized at the Biomolecular Resource Facility, The Australian National University. The 15 amino acid (aa) peptides corresponding to the conserved domains of MtRAR1 (AFQHypTTPGNSHypGVGH and […]ypGVGH, where Hyp indicates hydroxy proline residue) and M. hapla MhRAR2 (AFRHypTAPGHSHypGVGH) were synthesized and validated as previously described in Djordjevic M A. et al. (2011), “Border sequences of Medicago truncatula CLE36 are specifically cleaved by endoproteases common to the extracellular fluids of Medicago and soybean”. J Exp Bot 62(13):4649-4659. The root length of wild-type plants was measured four days after transfer to Fåhraeus-medium containing the synthetic peptide. For the hormone assays, A17 plants were grown on Fåhraeus-medium for 10 days before transferring to Fåhraeus-medium containing 10^−6 M of the respective phytohormones; 1-aminocyclopropant-1-carboxylic acid (ACC), 6-benzylaminopurine (BAP), gibberallic acid (GA), synthetic analog of strigolactone (GR24), methyljasmonate (MeJA) and 1-naphthaleneacetic acid (NAA).
# [2] = tested on: M. truncatula root nodulation by S. meliloti; experiment: Nodulation with S. meliloti of peptide-treated M. truncatula plants; assay type: in vivo, Medicago truncatula
# Description: The 3-weeks old transformed hairy-roots plants were first transferred to a modified Fahraeus media without […] and kanamycin to starve the plants of nitrogen for 4 days. Inoculation with Sinorhizobium meliloti was done as described in Saur I M, Oakes M, Djordjevic M A, & Imin N (2011), “Crosstalk between the nodulation signaling pathway and the autoregulation of modulation in Medicago truncatula”, New Phytol 190(4):[…].
# (§1) (b) partial nitrate tolerance of nodule development induced by WSM1022 on MtRAR1 over-expressing plants. Three weeks old composite plants were inoculated and scored two weeks post inoculation. N≥30. student's t-test; *; P<0.05; **; P<0.01; ***; P<0.001. (e) Acetylene reduction assay. MtRAR1 treated (1 μM) and non treated wild-type plants grown in Fåhraeus medium were harvested at 2 week post inoculation by S. meliloti WSM1022. Nitrogenase activity was calculated from peak areas of samples relative to acetylene and ethylene standards to obtain nmoles ethylene/min. N≥3, student's t-test; *: P<0.05; **: P<0.01. Error bars indicate SE. (d) Inoculation of plants with performed CCPs led to root nodule formation at CCP sites at 25 mM KNO3. Arrow head: CCP sites: Arrows: nodules. […] Scale bar: 100 μm. Plants were grown at 20° C.
# FIG. 32 M. truncatula plants were grown in 0.8% agar-containing plates supplemented with F media with or without MtRAR1 peptide. Five-day old seedlings were inoculated with S. meliloti strain WSM1022 and further grown for two mom weeks. MtRAR1 Domain 1: AFQ(P)TTPGNS(P)GVGH: MtRAR1 Domain 1 with G−>A transition: AFQ(P)TTPANS(P)GVGH. (P) is hydroxylproline and the altered amino acid is underlined.
# [3] = tested on: Nitrogenase activity; experiment: Acetylene reduction assay (nitrogenase activity) of plants inoculated with S. meliloti WSM1022; assay type: in vivo, Medicago truncatula; conditions: 1 μM peptide
# Experimental: as §1
# [4] = tested on: M. truncatula; experiment: Lateral root formation of plants grown in magenta jars with peptide; assay type: in vivo, Medicago truncatula; conditions: 1 μM peptide, 5 mM KNO3, two weeks, P<0.05
# Experimental: (§2) M. truncatula, M. sativa, Subterranean Clover Cultivar Woogenellup and white clover (Trifolium repens) plants were grown in 0.4% agar-containing magenta jars supplemented with F media with or without peptides for two weeks. The media contained 5 mM KNO3. MtRAR1 peptide: FQ(P)TTPGNS(P)GVGH where (P) is hydroxyproline. Students' t-test *: P<0.05; **; P<0.01; ***: P<0.001; N>12. Error bars represent SE.
# (§3) To further validate and exemplify the RAR technology, we have examined RAR peptide addition of roots of various plant species.
# [5] = tested on: Lucerne (M. sativa); experiment: as above; assay type: in vivo; conditions: 1 μM peptide
# Experimental: as §2
# The plants were grown in 0.4% agar-containing magenta jars supplemented with F media with or without peptides for two weeks. The medium contained 5 mM KNO3. MtRAR1 peptide: FQ(P)TTPGNS(P)GVGH where (P) is hydroxyproline.
# as §3
# [6] = tested on: Subterranean Clover Cultivar Woogenellup; experiment: as above; assay type: in vivo; conditions: 1 μM peptide
# Experimental: as §2
# The plants were grows in 0.4% agar-containing magenta jars supplemented with F media with or without peptides for two weeks. The media contained 5 mM KNO3. MtRAR1 peptide: FQ(P)TTPGNS(P)GVGH where (P) is hydroxyproline.
# as §3
# [7] = tested on: white clover (Trifolium repens); experiment: as above; assay type: in vivo; conditions: 1 μM peptide
# Experimental: as §2
# The plants were grown in 0.4% agar-containing magenta jars supplemented with F medium with on without peptides for two weeks. The media contained 5 mM KNO3. MtRAR1 peptide: […] where (P) is hydroxyproline.
# as §3
# [8] = tested on: microtom tomato seedlings; experiment: Plate assay, lateral root formation on microtom tomato seedlings; assay type: in vivo; conditions: 1 μM peptide
# Experimental: The plants were grown so 0.8% agar-containing plates supplemented with F media with or without peptides for two weeks. The media contained 5 mM KNO3. MtRAR1 peptide: […] where (P) is hydroxyproline. Students' t-test, **: P<0.01; N>12. Error bars represent SE.
# The plants were grows in 0.8% agar-containing plates supplemented with F media with or without peptides for two weeks. The medium contained 5 mM KNO3. MtRAR1 peptide: FQ(P)TTPGNS(P)GVGH where (P) is hydroxyproline.
# Primary root length was not affected (FIG. 6).
# [9] = tested on: Arabidopsis thaliana WT Col plants; experiment: RAR bioactivity in Arabidopsis at different concentrations; assay type: in vivo
# Experimental: To investigate the effect of different modifications on peptide bioactivity, several peptides were assayed for activity at different concentrations (Table 4), WT Col plants were grown vertically on ½ MS plates with 1% phytagel and containing varying concentration of RAR peptide ranging from 10^−6 M to 10^−12 M or no peptide. Plates were imaged at 12 days.
# [10] = tested on: Arabidopsis thaliana WT Col plants; experiment: Time course of RAR action in Arabidopsis over 12 days; assay type: in vivo; conditions: 1 μM
# Experimental: To see how RAR was exerting its effect on PR growth and lateral root emergence and growth, a time course was performed over 12 days, WT Col plants were grown vertically on ½ MS with 1% phytagel and 1 μM RAR6 hyP or no peptide, with 16 hr days at 22° C. Plates were scanned every day for 12 days.
# [11] = tested on: Arabidopsis thaliana WT Col plants; experiment: Rescue: transfer of Arabidopsis plants between RAR and no RAR plates; assay type: in vivo
# Experimental: To investigate whether the effect of RAR peptide addition could be released, WT Col plants were grown vertically for 6 days on […] plates with 1% phytagel. Plants were transferred from plates containing no RAR or 1 μM RAR6 hyP peptide (pre-treatment) to plates containing no RAR or 1 μM RAR6 hyP peptide as specified where they were left to grow for a further 6 days before being analysed.
# [12] = tested on: rice seedlings; experiment: Liquid culture (half strength MS), root formation of rice seedlings; assay type: in vivo; conditions: 1 μM peptide
# Experimental: The plants were grown in liquid media containing half strength MS media with or without peptides for two weeks. Monocot RAR peptide: DTRATDFGHS(P)GAGH where (P) is hydroxyproline. Students' t-test, *: P<0.05; N>6. Error bars represent SE.
# The plants were grown in liquid media containing half strength MS media with or without peptides for two weeks. Monocot RAR peptide: DTRATDPGHS(P)GAGH where (P) is hydroxyproline:
# Primary root length was also affected (FIG. 23).
# [13] = tested on: soybean seedlings; experiment: Liquid culture, root formation of soybean seedlings; assay type: in vivo; conditions: 1 μM peptide
# Experimental: The plants were grown in liquid supplemented with F medium with or without peptides for two weeks. The medium contained 5 mM KNO3. GmRAR peptide: NFR(P)TAPGHS(P)GVGH where (P) is hydroxyproline. Students' t-test, **; P<0.01; N>6. Error bars represent SE.
# The plants were grown in liquid supplemented with F medium with or without peptides for two weeks. The media contained 5 mM KNO3. GmRAR peptide: […] where (P) is hydroxyproline.
# Primary root length was also affected (FIG. 21).
# [14] = range tested 10^−6 M to 10^−12 M, 12 days
substance,measurement,setting,value
AFQ(P)TTPANS(P)GVGH [MtRAR1 Domain 1 with G−>A transition],Inhibition of lateral root emergence (structure activity relationship of peptide variants),[1]; compared with MtRAR1 peptide,greatly attenuated
same,Nodule numbers,"[2]; 1 μM peptide, 5 mM and 25 mM KNO3, trend = significant increase as with MtRAR1 over-expression",non-functional
AFQ[Hyp]TTPGNS[Hyp]GVGH [MtRAR1 peptide],Main root growth,[1]; 10^−6 M peptide,significantly inhibited
same,Lateral root formation,"[1]; A17 plants, F medium containing 25 mM KNO3, 10^−6 M peptide",significantly reduced
same,Concentration for dose-dependent inhibition of lateral root emergence,[1]; in vivo,greater than 10^−7 M
same,Periodic bump (CCP site) formation,[1],Maximum CCP site generation; also recorded: Periodic bumps
same,Numbers of pink functional nodules,"[2]; 1 μM peptide, 5 mM and 25 mM KNO3, compared to controls",significantly higher numbers
same,Nodule development (nodule sections),"[2]; 0.5 mM or 25 mM KNO3, three weeks, versus untreated plants",accelerated nodule development
same,Nodule size,"[2]; all across the nitrate regimen, versus no peptide or G->A peptide",much larger
same,Increase in nitrogenase activity,"[3]; 0 mM KNO3, 2 week post inoculation",35%
same,Increase in nitrogenase activity,"[3]; 5 mM KNO3, 2 week post inoculation",200%
same,Lateral root emergence,[4],significantly inhibited
same,CCP (bump) site formation,[5],formed CCP
same,Lateral root emergence,"[5]; 5 mM KNO3, two weeks, P<0.05",significantly inhibited
same,CCP (bump) site formation,[6],formed CCP
same,Lateral root emergence,"[6]; 5 mM KNO3, two weeks, P<0.05",significantly inhibited
same,CCP (bump) site formation,[7],formed CCP
same,Lateral root emergence,"[7]; 5 mM KNO3, two weeks, P<0.05",significantly inhibited
same,Primary root length,[8],not affected
same,Number of lateral roots,"[8]; 5 mM KNO3, two weeks, P<0.05",reduction
AFR[Hyp]TAPGHS[Hyp]GVGH [MhRAR2],Periodic bump (CCP site) formation,[1],Maximum CCP site generation; also recorded: Periodic bumps
D F R hyP T (p-T) P G H S hyP G I G H [RAR6 phos],Activity relative to the non-phosphorylated RAR6 peptide,[9]; in vivo,1000 ×
same,Concentration range at which the peptide is active (in words),[9]; [14],picomolar
D F R hyP T T P G H S hyP G I G H [RAR6 hyP],"PR length, treated versus untreated",[10]; 2 days post imbibing,no significant difference
same,"PR length, treated versus untreated",[10]; from day 3 onwards,significantly shorter
same,"Number of lateral roots, treated versus untreated",[10]; scanned every day for 12 days,not significantly different until day 8
same,Primary root length of plants pre-treated with RAR and transferred to no RAR versus plants exposed to RAR continuously,"[11]; 1 μM, 6 + 6 days, p<0.05",significantly higher
same,"Number of lateral roots after transfer to no RAR, by pre-treatment","[11]; 6 days pre-treatment with 1 μM or no RAR, then 6 days no RAR",the same
D F V P T S P G N S P G V G H (DFVPTSPGNSPGVGH) [RAR5 no HyP],Concentration at which the peptide is active,[9]; [14],10^−9 M
D F V hyP T (p-S) P G N S hyP G V G H [RAR5 phos],Effect of phosphorylation on activity,[9]; Arabidopsis RAR5,enhances activity
D F V hyP T S P G N S hyP G V G H [RAR5 hyP],Concentration at which the peptide is active,[9]; [14],10^−8 M
DTRATDPGHS(P)GAGH [Monocot RAR peptide],Primary root length,[12],affected
same,Number of roots,"[12]; liquid half strength MS, two weeks, P<0.05",reduction
NFR(P)TAPGHS(P)GVGH [GmRAR peptide],Primary root length,[13],affected
same,Number of roots,"[13]; liquid F medium, 5 mM KNO3, two weeks, P<0.05",reduction
